Source: paper PMC11288129, “Diversely evolved xibalbin variants from remipede venom inhibit potassium channels and activate PKA-II and Erk1/2 signaling” (BMC Biology, 2024)
Entries after “also recorded” stand apart in the source; their conditions may differ. Positions of bridges follow the written chain, without caps; N, C: chain ends. No end group written: not given here.

Columns and labels:
hKv10.1 = experiment: TEVC inhibition, Kv10.1; assay type: cell-based, human; design: unit not given here; details: 1 µM
Text: (§1) For the expression of Kv channels rat Kv1.1 (GenBank accession number: NM_173095 [88, 89]), rKv1.2 (NM_012970 [90, 91]), human Kv1.3 (NM_002232 [92, 93]), rKv1.4 (NM_012971 [94, 95]), rKv1.6 (NM_023954 [96, 97]), hKv2.1 (NM_004975 [98, 99]), hKv3.1 (NM_004976 [100, 101]), rKv4.2 (NM_031739 [102, 103]), hKv10.1 (NM_172362 [104, 105]), hERG1 [Kv11.1, (NM_000238 [106, 107])], and Shaker IR [from Drosophila melanogaster, (NM_167595 [108, 109])], Nav channels [rNav1.2 (NM_012647 [42, 110]), rNav1.4 (NM_013178 [111, 112]), hNav1.5 (NM_198056 [113, 114]), mNav1.6 (NM_001077499 [115, 116]), BgNav [from Blattella germanica, (DQ466887 [117, 118])] and the auxiliary subunits rβ1 (NM_001271045 [119, 120]), hβ1 (NM_001037 [121, 122]), and TipE [from D. melanogaster, (NM_079196 [109, 123])], and Cav channels hCav3.1 [124, 125], hCav3.2 [126, 127], and hCav3.3 [128, 129] in Xenopus oocytes, the linearized plasmids were transcribed using the T7 or SP6 mMESSAGEmMACHINE transcription kit (Ambion, Austin, TX, USA). Mature female animals were purchased from Nasco (Fort Atkinson, USA) and were housed in the Aquatic Facility (KU Leuven) in compliance with the regulations of the European Union (EU) concerning the welfare of laboratory animals as declared in Directive 2010/63/EU. The use of X. laevis oocytes was approved by the Animal Ethics Committee of the KU Leuven with the license number P186/2019. Stage V–VI oocytes were collected from anesthetized female X. laevis frog as previously described, with the frogs anesthetized by placement in 0.1% tricaine solution (amino benzoic acid ethyl ester; Merck, USA). Oocyte microinjection was performed using a microinjector (Drummond Scientifc®, USA), with a programmed cRNA injection volume of 4—50 nL, depending on the channel subtype. The oocytes were incubated in ND96 solution (96 mM NaCl, 2 mM KCl, 1.8 mM CaCl2, 2 mM MgCl2, and 5 mM HEPES, pH 7.4), supplemented with 50 mg/l gentamicin sulfate.
(§2) Electrophysiological measurements were performed at room temperature (18–22 °C) using the two-electrode voltage clamp (TEVC) technique. Data were obtained using a GeneClamp 500 amplifier (Axon Instruments, USA), and Clampex9 software (Axon Instruments), responsible for data acquisition and storage. Glass micropipettes were produced using glass capillaries (borosilicate WPI 1B120-6) and drawn in a WPI (World Precision Instruments, USA) manual stretcher. The bath and perfusion solutions were either the previously described ND96 (Nav and Kv channels) or calcium-free ND96 supplemented with 10 mM BaCl2 (Cav channels).
(§3) Whole-cell currents of oocytes were recorded 1 to 3 days after injection. Current and voltage electrodes were filled with 3 M KCl and their resistance was adjusted from 0.7 to 2.0 MΩ. Currents were sampled at 20 kHz (Nav channels) and 10 kHz (Kv and Cav channels) and filtered using a four-pole Bessel low-pass Bessel filter, at 1 kHz for sodium, and […] for potassium and calcium, except for the hERG ion channel, in which the currents were filtered at 1 kHz. Leak subtraction was performed using a -P/4 protocol. Kv1.x currents were evoked by 500 ms depolarizations to 0 mV followed by a 500-ms pulse to − 50 mV, from a holding potential of − 90 mV. Kv2.1, Kv3.1, and Kv4.2 currents were elicited by 500 ms pulses to + 20 mV from a holding potential of − 90 mV. Current traces of Kv10.1 were elicited by 2 s depolarization to 0 mV, from a holding potential of − 90 mV. Current traces of hERG1 channel were elicited by applying a + 40 mV prepulse for 2 s followed by a step of − 120 mV for 2 s. Sodium current traces were evoked by a 100 ms depolarization to 0 mV, from a holding potential of − 90 mV. The current–voltage (IV) relationships were determined by 100-ms step depolarizations between − 90 and + 40 mV, using 5 mV increments. […]

Kv1.3 = experiment: TEVC inhibition, Kv1.3; assay type: cell-based, human; design: unit not given here; details: 1 µM
Text: as §1, §2, §3

[1] = tested on: voltage-gated sodium channels (Nav); experiment: TEVC on panel of voltage-gated sodium channels; assay type: cell-based; details: 1 µM
Text: (§4) For the expression of Kv channels rat Kv1.1 (GenBank accession number: NM_173095 [88, 89]), rKv1.2 (NM_012970 [90, 91]), human Kv1.3 (NM_002232 [92, 93]), rKv1.4 (NM_012971 [94, 95]), rKv1.6 (NM_023954 [96, 97]), hKv2.1 (NM_004975 [98, 99]), hKv3.1 (NM_004976 [100, 101]), rKv4.2 (NM_031739 [102, 103]), hKv10.1 (NM_172362 [104, 105]), hERG1 [Kv11.1, (NM_000238 [106, 107])], and Shaker IR [from Drosophila melanogaster, (NM_167595 [108, 109])], Nav channels [rNav1.2 (NM_012647 [42, 110]), rNav1.4 (NM_013178 [111, 112]), hNav1.5 (NM_198056 [113, 114]), mNav1.6 (NM_001077499 [115, 116]), BgNav [from Blattella germanica, (DQ466887 [117, 118])] and the auxiliary subunits rβ1 (NM_001271045 [119, 120]), hβ1 (NM_001037 [121, 122]), and TipE [from D. melanogaster, (NM_079196 [109, 123])], and Cav channels hCav3.1 [124, 125], hCav3.2 [126, 127], and hCav3.3 [128, 129] in Xenopus oocytes, the linearized plasmids were transcribed using the T7 or SP6 mMESSAGEmMACHINE transcription kit (Ambion, Austin, TX, USA). […]
(§5) Whole-cell currents of oocytes were recorded 1 to 3 days after injection. […] The current–voltage (IV) relationships were determined by 100-ms step depolarizations between − 90 and + 40 mV, using 5 mV increments. […]

mNav1.6 = experiment: TEVC current-voltage relationship (Vhalf), Nav1.6; assay type: cell-based, mouse; design: Vhalf, toxin inactivation, Nav1.6 / Vhalf, toxin activation, Nav1.6: unit not given here; details: for Vhalf activation shift, Nav1.6: 1 µM versus control (ND96); for Vhalf, toxin activation, Nav1.6 / Vhalf, toxin inactivation, Nav1.6: 1 µM
Text: as §1, §2, §3

hKv2.1 = experiment: TEVC inhibition, Kv2.1; assay type: cell-based, human; design: unit not given here; details: 1 µM
Text: as §1, §2, §3

hNav1.5 = experiment: TEVC inhibition, Nav1.5; assay type: cell-based, human; details: 1 µM, Xenopus oocytes, ND96, 18–22 °C, mean ± SEM, n ≥ 3
Text: as §4, §5

| Sequence | Inhibition data, Kv10.1 (hKv10.1; replicate 1) | Inhibition data, Kv10.1 (hKv10.1; replicate 2) | Inhibition data, Kv10.1 (hKv10.1; replicate 3) | Inhibition data, Kv10.1 (hKv10.1; replicate 4) | Inhibition data, Kv1.3 (Kv1.3; replicate 1) | Inhibition data, Kv1.3 (Kv1.3; replicate 2) | Inhibition data, Kv1.3 (Kv1.3; replicate 3) | Inhibition data, Kv1.3 (Kv1.3; replicate 4) | inhibition of voltage-gated sodium channels [1] | Vhalf activation shift, Nav1.6 (mNav1.6) [mV] | Vhalf, toxin activation, Nav1.6 (mNav1.6; replicate 1) | Vhalf, toxin inactivation, Nav1.6 (mNav1.6; replicate 1) | Vhalf, toxin activation, Nav1.6 (mNav1.6; replicate 2) | Vhalf, toxin inactivation, Nav1.6 (mNav1.6; replicate 2) | Vhalf, toxin activation, Nav1.6 (mNav1.6; replicate 3) | Vhalf, toxin inactivation, Nav1.6 (mNav1.6; replicate 3) | Vhalf, toxin activation, Nav1.6 (mNav1.6; replicate 4) | Vhalf, toxin inactivation, Nav1.6 (mNav1.6; replicate 4) | Inhibition data, Kv2.1 (hKv2.1; replicate 1) | Inhibition data, Kv2.1 (hKv2.1; replicate 2) | further results |
| --- | --- | --- | --- | --- | --- | --- | --- | --- | --- | --- | --- | --- | --- | --- | --- | --- | --- | --- | --- | --- | --- |
| KRSCIRRFGRCDHRPNDCCYNSSCRCNLWGSNCRCQRMGLFQKWGK (disulfide 4-19, 11-24, 18-35, 26-33) [xib13] | 0.0 | 0.0 | 0.0 | 0.0 | 61.2 | 57.8 | 41.4 | 53.4 | inhibit voltage-gated sodium channels; also recorded: mild inhibition; also recorded: most significant inhibition rates | 0.5 | -22.599 | -56.1011 | -28.3204 | -61.4261 | -27.6893 | -56.3883 | -20.1785 | -49.5801 | 0.0 | 0.0 | Inhibition data, Kv2.1 (hKv2.1; replicate 3): 0.0; Inhibition data, Kv2.1 (hKv2.1; replicate 4): 0.0; inhibition of Nav1.5 (hNav1.5): 28.2 ± 3.4% |
| RLFCIRHHKYCGHRPKRCCSGLFCRCNTFGTNCRCQSKGALGKLI (disulfide 4-19, 11-24, 18-35, 26-33) [xib1] | 0.0 | 0.0 | 0.0 | 0.0 | 59.5 | 65.4 | 60.6 | 62.3 | inhibit voltage-gated sodium channels; also recorded: mild inhibition | 1.9 | -19.6324 | -54.1984 | -25.3795 | -54.8159 | -25.7195 | -56.7966 | -23.7149 | -53.558 | 0.0 | 0.0 | Inhibition data, Kv2.1 (hKv2.1; replicate 3): 0.0; Inhibition data, Kv2.1 (hKv2.1; replicate 4): 0.0; inhibition of Nav1.5 (hNav1.5): 26.1 ± 1.8% |
